Results on ten molecules are retold here after patent publication US20170360029A1, “Chemical Agent For Controlling Soil Nematode Which Comprises Macrolide-Type Compound” (Maruwa Biochemical Co., Ltd., priority 2012, published 2017).

Values after ≈ are worked out from the molar mass of the structure shown.

Data set [1] deals with sweet potato root-knot nematodes. In words: Nematode Control Test Example 2: abamectin and moxidectin emulsions, pot test. Format: in vivo. Particulars: for Aerial part weight: cherry tomato; for Aerial part weight / Root-knot parasitism level: after eight weeks; for Root-knot parasitism level: scale 0-4, mean. On the procedure: (§1) In the test below, evaluation criteria for the root-knot parasitism level are as follows:
(§2) The evaluation was conducted using additional intermediate levels of 0.5 between each parasitism levels below at the investigation.
(§3) Parasitism level 0: No root-knots are noted at all.
(§4) Parasitism level 1: The formation of root-knots is noted in not more than 25% of the root.
(§5) Parasitism level 2: The formation of root-knots is noted in more than 25% and not more than 50% of the root.
(§6) Parasitism level 3: The formation of root-knots is noted in more than 50% and not more than 75% of the root.
(§7) Parasitism level 4: The formation of root-knots is noted in more than 75% of the root.
Abamectin 7.5% emulsion from NO. 3 in Formulation Example 1 and moxidectin 7.5% emulsion from NO. 38 in Formulation Example 3 were prepared by diluting with tap water (water hardness about 70) at a concentration of active ingredient of 5 ppm, 10 ppm, and 20 ppm. One liter of Pleistocene volcanic ash soil in which sweet potato root-knot nematodes had proliferated (initial sweet potato root-knot nematode density: the mean in fourth-repeated cultivations 260 nematodes/20 g of soil) was placed in a polyethylene bag and 30 ml of each of the above was mixed therewith while sprayed. The soil mixed with the chemical agent was filled in a pot with a surface area of 162 cm^2. A group where 1 L of soil was mixed and treated with 200 mg of a commercially available organophosphorus-based nematocide fosthiazate 1.5% granule as a control chemical agent and a group with no treatment were set up. After the treatment with the chemical agent, four stocks of cherry tomato (variety Regina nursery plant with four true leaves) were planted. The test was repeated twice and cultivation management was conducted in a greenhouse. After eight weeks, the weight of aerial parts and root-knot parasitism level were investigated.

The test system is the same in data set [2]. The data set can be described thus: Nematode Control Test Example 1: emulsions mixed with infested soil, cherry tomato pot test. It counts as in vivo. Particulars: for Aerial part weight / Root-knot parasitism level: cherry tomato, after six weeks, sprayed liquid 10 ppm, concentration in soil 0.3 ppm; for Aerial part weight: mixed with soil; for nematode control effect (in words): concentration of active ingredient in the soil of 0.3 ppm; for Root-knot parasitism level: scale 0-4, mean. On the procedure:
Each of abamectin 7.5% emulsion from NO. […] One liter of Pleistocene volcanic ash soil in which sweet potato root-knot nematodes had proliferated (the mean of initial sweet potato root-knot nematode density in the fourth-repeated cultivations: 235 nematodes/20 g of soil) was placed in a polyethylene bag and 30 ml of 10 ppm liquid of each chemical agent was mixed therewith while sprayed. The soil mixed with the chemical agent was filled in a pot with a surface area of 162 cm^2. A group where 1 L of soil was mixed and treated with 200 mg of a commercially available organophosphorus-based nematocide fosthiazate 1.5% granule (Ishihara Nemathorin Ace granule, a product from Ishihara Sangyo Kaisha, Ltd.) as a control chemical agent and a group with no treatment were set up. After the treatment with the chemical agent, three stocks of cherry tomato (variety Regina nursery plant with three true leaves, a product from Takii seed Co., Ltcd.) were planted. The test was repeated twice and cultivation management was conducted in a greenhouse. After six weeks, the weight of aerial parts and root-knot parasitism level were investigated.
as §1, §2, §3, §4, §5, §6, §7

For data set [3] the following is noted: Non Patent Literature 4; cited from earlier work.
The conditions of data set [4]: cited from earlier work.
Where [5] appears, read: sprayed liquid 5 ppm, concentration in soil 0.15 ppm.
The mark [6] stands for this setting: sprayed liquid 10 ppm, concentration in soil 0.3 ppm.
Setting [7] is: sprayed liquid 20 ppm, concentration in soil 0.6 ppm.

abamectin: the Aerial part weight in data set [1] (setting [5]) came out at 55 g/stock; in data set [1] (setting [6]), 49 g/stock; in data set [1] (setting [7]), 45 g/stock; in data set [2], 3.7 g/stock. The “capability of controlling nematodes (in words)” value in data set [1] (comparison abamectin vs moxidectin, 0.15-0.6 ppm in soil) is recorded as “slightly better effect than moxidectin”. The Root-knot parasitism level in data set [1] (setting [5]) worked out at 2.38; in data set [1] (setting [6]), 1.17; in data set [1] (setting [7]), 1.00; in data set [2] it was 0.75. Further, the “nematode control effect (in words)” value in data set [2] is “apparent nematode control effect”. The “breakdown by soil microorganisms” value in data set [3] is listed as “quickly broken down”. In addition, the soil adsorption entry in data set [3] is “very high”.
As to emamectin, in data set [2], the Aerial part weight was 3.3 g/stock, the “nematode control effect (in words)” value is “apparently exhibited fewer effects” and the Root-knot parasitism level worked out at 3.92.
In data set [2], `CC1=C[C@H]2C(=O)O[C@H]3C[C@@H](C/C=C(\C)C[C@@H](C)/C=C/C=C4\CO[C@H]([C@@H]1O)[C@@]42O)O[C@]1(C3)C[C@H](O)[C@H](C)[C@@H](/C(C)=C/C(C)C)O1` [NEM, nemadectin] gave an Aerial part weight of 3.0 g/stock and a Root-knot parasitism level of 4.00.
As to ivermectin, in data set [2], the Aerial part weight amounted to 3.7 g/stock, the “nematode control effect (in words)” value is given as “apparent nematode control effect” and the Root-knot parasitism level was 0.83.
On to `CO/N=C1\C[C@]2(C[C@@H]3C[C@@H](C/C=C(\C)C[C@@H](C)/C=C/C=C4\CO[C@@H]5[C@H](O)C(C)=C[C@@H](C(=O)O3)[C@]45O)O2)O[C@H](/C(C)=C/C(C)C)[C@H]1C` [MOX, moxidectin], for which the Aerial part weight is 44 g/stock in data set [1] (setting [5]), 54 g/stock in data set [1] (setting [6]), 42 g/stock in data set [1] (setting [7]) and 4.1 g/stock in data set [2]. The Root-knot parasitism level in data set [1] (setting [5]) was 2.81; in data set [1] (setting [6]) it was 1.75; in data set [1] (setting [7]), 1.38; in data set [2], 1.33.
Consider `CO[C@H]1C[C@H](O[C@@H]2/C(C)=C/C[C@@H]3C[C@@H](C[C@]4(CC[C@H](C)[C@@H](C5CCCCC5)O4)O3)OC(=O)[C@@H]3C=C(C)/C(=N/O)[C@H]4OC/C(=C\C=C\[C@@H]2C)[C@]43O)O[C@@H](C)[C@@H]1O` [SEL, selamectin], for which, in data set [2], the Aerial part weight stood at 2.6 g/stock, the “nematode control effect (in words)” value is on record as “apparently exhibited fewer effects” and the Root-knot parasitism level turned out to be 4.00.
Turning to lepimectin, in data set [2], the Aerial part weight amounted to 3.1 g/stock and the Root-knot parasitism level is reported as 4.00.
For the molecule `CNC(=O)O/N=C(\SC)C(=O)N(C)C` [oxamyl], the solubility to water in data set [4] is 280 g/L (≈ 1280 mM).
Turning to `CO[C@H]1C[C@H](O[C@H]2[C@H](C)O[C@@H](O[C@@H]3/C(C)=C/C[C@@H]4C[C@@H](C[C@]5(C=C[C@H](C)[C@@H](C6CCCCC6)O5)O4)OC(=O)[C@@H]4C=C(C)[C@@H](O)[C@H]5OC/C(=C\C=C\[C@@H]3C)[C@]54O)C[C@@H]2OC)O[C@@H](C)[C@@H]1O` [DOR, doramectin], in data set [2], the Aerial part weight is listed as 3.8 g/stock, the “nematode control effect (in words)” value was “apparent nematode control effect” and the Root-knot parasitism level was found to be 0.58.
Take milbemectin: the solubility to water in data set [4] was 0.00088 g/L. Also, in data set [2], the Aerial part weight was determined as 2.5 g/stock and the Root-knot parasitism level is 4.00.
